Measured values taken from the NIST ThermoML archive (doi:10.1016/j.jct.2005.06.017).

Test: mn = molality of the nth substance listed, in mol/kg
Conditions: 350 kPa, Liquid, Extra sensitive DSC

NCC(=O)O [2-aminoacetic acid] + O
apparent molar heat capacity [J/K/mol]
Conditions	m1 = 0.015	m1 = 0.03	m1 = 0.0503	m1 = 0.0804	m1 = 0.125	m1 = 0.2493	m1 = 0.5056
338.15 K	–	–	–	81.6	77.9	79.2	82.5
343.15 K	97	75	80.6	83.6	80	81.3	84.6
348.15 K	99	77	83.1	85.6	81.8	83.1	86.4
353.15 K	101	79	85.3	87.3	83.4	84.8	88.1
358.15 K	102	81	87.1	88.9	84.8	86.2	89.5
363.15 K	103	82	88.9	90.2	86	87.3	90.7
368.15 K	104	83	90.2	91	86.9	88.3	91.6
373.15 K	104	83	91.1	91.7	87.5	89	92.4
378.15 K	104	83	92.1	92.3	87.9	89.4	92.9
383.15 K	103.9	84	93.3	92.9	88.2	89.9	93.3
388.15 K	103.5	84	94.5	93.1	88.2	90	93.6
393.15 K	101.4	84	95.6	92.9	87.7	89.7	93.6
